System: HG23 cells
Experiment: cell cytotoxicity assay kit
Format: cell-based
Details: TD50

SMILES: O=C(CN(Cc1ccccc1)S(=O)(=O)NCc1cccc(Oc2ccccc2)c1)NCCN1CCOCC1 [Compound 11b, 2-(Benzyl(N-(3-phenoxybenzyl)sulfamoyl)amino)-N-(2-morpholinoethyl)acetamide]
- higher toxicity versus compound 11a: ~ 8 fold

— paper PMC3799806 (Bioorganic & medicinal chemistry, 2012)
